# Data from PMC8741257, “Identification of novel non-toxic and anti-angiogenic α-fluorinated chalcones as potent colchicine binding site inhibitors” (Journal of Enzyme Inhibition and Medicinal Chemistry, 2022).
# Assays:
# [1] = system: HUVECs (human umbilical vein endothelial cells); assay: Wound healing migration assay; format: cell-based; details: 10 µM, 48 h, control 65%
# Experimental: HUVECs (human umbilical vein endothelial cells) grown on Matrigel were commonly used as a tube formation model for studying the physiological and pathological processes of the vascular system in vitro, and a widely studied human endothelial cell type in angiogenesis. The effect of 4c on endothelial cell migration was assessed by using HUVECs. Standardised wounds were made in confluent monolayers of HUVECs and then exposed to compound 4c at 2.5, 5 and 10 µM for 48 h. […] We further evaluated the capacity of 4 s on endothelial cell invasion using a Transwell assay.
# (§1) MGC-803 cells and HUVECs were seeded in 24-well plates and cultivated for 24 h at 37 °C. The cells were scribed vertically with a gun tip and washed with PBS to remove dead cells. The containing different concentrations of 4c were added to the scratched monolayers. The migrated cells were photographed under a light microscope at indicated time points from the scratch. Take a picture and use the image J software to calculate the area of the cell scratches.
# MGC-803 cells [2] = assay: Cell apoptosis assay (Annexin V/PI, flow cytometry); format: cell-based, human; details: 48 h, control 1.99%
# Experimental: According to above-mentioned cell cycle analysis, we suppose that 4c might induce cells apoptosis, like other microtubule polymerisation inhibitors. Thus, the effects of 4c on MGC-803 cell apoptosis were examined by flow cytometry.
# MGC-803 cells at 8 × 10^4 cells/well were seeded in 12-well cell culture plates overnight, and then the cultured cells were incubated with a dose range of compounds 4c for 48 h. The treated or untreated cells were washed twice with PBS and stained by Annexin V-PE and PI for 15 min without light exposure according to the manufacturer’s protocol. Apoptosis was quantified using a flow cytometer (Becton, Dickinson and Company, USA).
# [3] = system: human normal cells (LO2, 293T, macrophage) versus MGC-803; assay: Selectivity of growth inhibition, human normal cells versus MGC-803; format: cell-based
# Experimental: The effect of compound 4c on three types of normal human cell lines including LO2 (human hepatocyte cells), 293 T (human embryonic kidney cell) and THP-1-derived macrophages was then determined.
# [4] = system: Caspase -3/-7/-9 and PARP in MGC-803 cells; assay: Western blot of apoptosis-related proteins; format: cell-based, human; details: 18, 36 and 72 nM, 48 h
# Experimental: The Caspase family proteins are considered to be critical regulators of cell apoptosis, in which Caspase-3 is one of the most important "executioner" of apoptosis induction, capable of cleaving many important cellular matrices and represent the hallmark of apoptosis. To explore the apoptosis-associated protein alterations, the expression of Caspase -3/-7/-9 and PARP was analysed.
# (§2) The protein levels in MGC-803 cells were assessed via western blot analysis. Exponentially growing MGC-803 cells were seeded at a density of 6 × 10^5/dishes and incubated overnight. Then 18, 36, 72nΜ of 4c were added in triplicate for 48 h incubation. After the cells were washed with cold PBS, the supernatant was removed. The supernatant was collected by centrifuging at 12,000 g for 10 min at 4 °C. The protein concentration in the supernatant was determined by using a BSA protein assay kit. Samples were prepared in SDS-PAGE loading buffer after BSA analysis to quantify proteins, then boiled for 10 min at 100 °C. Western blot analyses were conducted after separation by SDS-PAGE electrophoresis and transfer to nitrocellulose filter (NC) membranes. Immunoblotting was performed according to the antibody manufacturers’ recommendations.
# tubulin = assay: Tubulin polymerisation assay in vitro; format: biochemical; details: 6 µM of 4c; colchicine 4 µM as positive control; fluorescence intensity
# Experimental: The microtubule kinetic experiments were performed with 4 µM of colchicine as a positive control and 6 µM of 4c as the experimental group according to the method originally described by J. M. Andreu et al. with some modifications. Purified and unpolymerised tubulin was incubated with the tested compounds and the increased tendency of fluorescence intensity shown in control samples was obviously slowed down.
# [5] = system: p-Cdc2, CyclinB1 and P21 in MGC-803 cells; assay: Western blot of G2/M regulatory proteins; format: cell-based, human; details: 18, 36, 72 nM, 48 h
# Description: Cdc2 kinase, a member of Ser/Thr protein family, is considered as a driving force of G2/M transition. Activation of Cdc2 catalysed the phosphorylation of a variety of substrate proteins, thus promoting cell transition from G2 phase to M phase. Cyclin B1 plays a vital role to control cell transition from G2 to M phase. P21 also effectively regulates cell cycle progress by increasing the intracellular G2/M phase ratio. Therefore, the expression of cell cycle checkpoint protein was investigated.
# as §2
# MGC-803 cells [6] = assay: Wound healing migration assay; format: cell-based, human; details: 72 nM, after 48 h, control approximately 64%
# Experimental: Metastasis is one of the leading causes of morbidity and mortality of cancer patients. Microtubules-targeting inhibitors have also been reported to interfere with cell migration and invasion. Accordingly, the in vitro would healing assay and Transwell assays were performed to investigate the inhibitory effect of compound 4c on the migration and invasion of MGC-803 cells. As shown Figure 8(A,C), the scratches healing rate in the control group was approximately 64%. By contrast, the cells treated with 4c have much smaller scratched areas recovery at all concentrations. […] Cell invasion is an important malignant behaviour during cancer metastasis. In Tanswell assay, MGC-803 cells were seeded into upper chambers with pre-coated Matrigel stimulating base membrane in order to assess the cellular invasion.
# as §1
# ROS in MGC-803 cells = assay: Intracellular ROS generation (DCFH-DA, flow cytometry); format: cell-based, human; details: 72 nM, 48 h, control 0.17%
# Experimental: It is now generally accepted that mitochondrial dysfunction is the main source of elevated ROS levels, accompanied by changes in mitochondrial membrane potential and activation of downstream Caspases. To further evaluate the alterations of intracellular ROS levels after cells exposed to 4c, flow cytometry was analysed with 2′,7′-Dichlorodihydrofluorescein diacetate (DCFH-DA) as fluorescent probe. As shown in Figure 7(B), 4c induced intracellular ROS generation in a dose-dependent manner. […] According to above-mentioned results, we can deduce that 4c induced cell apoptosis through a variety of ways including the disruption of the mitochondrial membrane potential, accumulation of intracellular ROS level and regulation of apoptosis-related proteins expression in cancer cells.
# Load the probe and dilute DCFH-DA with serum-free culture medium at 1:1000 to a final concentration of […]. Spread the cultured cells in a 6-well plate with about 1.5 × 10^5 cells per well and incubate overnight at 37 °C. After 48 h of incubation with 4c (18, 36, 72nΜ) the cell culture medium was removed and diluted DCFH-DA was added and incubated for 20 min at 37 °C in an incubator, and the mixture was inverted every 3–5 min. […] Add 200 μL of PBS for resuspension, place on ice, and subsequently assay by flow cytometry using standard procedures.
smiles,measurement,setting,value
"COc1cc(C(=O)/C(F)=C/c2c[nH]c3cc(Br)ccc23)cc(OC)c1OC [4c, (Z)-3–(6-bromo-1H-indol-3-yl)-2-fluoro-1–(3,4,5-trimethoxyphenyl)prop-2-en-1-one]",wound closure rates,[1],11%
same,percentage of apoptotic cells,MGC-803 cells [2]; 18 nM (lowest dose),19.12%
same,percentage of apoptotic cells,MGC-803 cells [2]; 72 nM (highest dose),57.99%
same,selectivity ratio towards MGC-803 cells and macrophage cells,[3],up to 21.2 folds
same,cleaved Caspase-3/-7/-9 expression,[4],up-regulation of cleaved Caspase-3/-7/-9
same,Effect on tubulin polymerisation in vitro,tubulin,exhibited a similar action to that of colchicine
same,Cyclin B1 expression,[5],caused a decrease in Cyclin B1
same,P21 expression,[5],increased the expression of tumour suppressor protein P21
same,phosphorylation levels of Cdc2,[5],decrease the phosphorylation levels of Cdc2 in a concentration-dependent manner
same,migration rates (scratch healing),MGC-803 cells [6],10%
same,FITC-A+ (ratio of DCF positive cells),ROS in MGC-803 cells,93.6%
